For one assay, the system named is KBM7 cells. Description: Cell survival assay, wild type (parental) KBM7 cells. The assay is classed as cell-based, human. To be noted: 50 μM, 3 days of treatment. On the procedure:
(§1) A haploid cell genetic screen with 3-BrPA was performed using 100 million mutagenized KBM7 cells as described previously^29. Mutagenized haploid KBM-7 cells were exposed to 50 μM 3-BrPA for 3 weeks. Surviving clones were harvested and genomic DNA was isolated and insertions were amplified. The sequences flanking retroviral insertion sites were mapped to the human genome using inverse PCR followed by Ilium in a sequencing. Genomic regions with a high density of insertions were identified using the proximity index for a given insertion. Additionally, the statistical enrichment of insertions at a given locus in the selected population was calculated by comparing the number of inactivating insertions to those in the untreated control dataset via a Fisher's Exact Test. Individual clones were isolated among 50 different clones and genomic DNA for individually selected clones were isolated using a genomic DNA isolation kit (Qiagen). Genomic insertions were identified by inverse PCR and subsequent sequencing as described previously^24.
(§2) Cell lines (5,000-20,000) were seeded in 96-well plates and treated with indicated amounts of 3-BrPA. After 3 days of treatment, CellTiter-Glo (Promega) and/or CyQuant (Invitrogen) were used to measure survival percentage for each concentration compared to untreated cells. […]

The target of another assay is T1, MCT1 (Homo sapiens, UniProt P53985).
T1 construct: endogenous in cells; host or cells: wild type KBM7 cells (near-haploid human cell line)
T1 sequence (P53985 1-500): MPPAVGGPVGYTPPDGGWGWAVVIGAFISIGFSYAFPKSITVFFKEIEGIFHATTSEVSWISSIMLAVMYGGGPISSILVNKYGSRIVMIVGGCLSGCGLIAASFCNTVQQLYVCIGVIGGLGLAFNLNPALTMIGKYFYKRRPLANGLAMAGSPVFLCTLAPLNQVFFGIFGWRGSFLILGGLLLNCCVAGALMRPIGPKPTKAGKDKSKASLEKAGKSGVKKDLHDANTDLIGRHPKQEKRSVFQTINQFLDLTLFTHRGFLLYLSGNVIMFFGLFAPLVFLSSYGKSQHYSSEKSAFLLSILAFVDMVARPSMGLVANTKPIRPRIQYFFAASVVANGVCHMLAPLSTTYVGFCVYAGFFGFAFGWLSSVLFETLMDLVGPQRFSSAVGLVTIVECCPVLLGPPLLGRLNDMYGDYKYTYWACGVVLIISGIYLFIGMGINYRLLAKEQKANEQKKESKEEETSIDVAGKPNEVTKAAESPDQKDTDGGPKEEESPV
T1 sequence (P35613 140-385 partner limits assumed): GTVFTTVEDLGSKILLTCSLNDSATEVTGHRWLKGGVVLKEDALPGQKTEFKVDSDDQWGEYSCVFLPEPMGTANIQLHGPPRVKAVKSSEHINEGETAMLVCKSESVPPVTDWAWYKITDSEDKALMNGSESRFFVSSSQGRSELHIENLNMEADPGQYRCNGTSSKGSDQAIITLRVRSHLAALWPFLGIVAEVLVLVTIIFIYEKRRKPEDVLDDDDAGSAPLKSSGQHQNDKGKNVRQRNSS
Nature of the assay: 14C-3-BrPA uptake assay, wild type KBM7 cells. The assay is classed as cell-based. As to the method:
Wild type KBM7 or MCT1-null cells were seeded in HBSS and exposed for up to 20 minutes to 100 μM ^14C-labeled 3-BrPA (6.8 mCi/mmole) (Moravek) with or without competitor molecules like 3-BrPA, Pyruvate, L-Lactate and D-Lactate. Cells were washed with cold HBSS, lysed in a NaOH buffer, and uptake measured using a liquid scintillation counter.

For a further assay, the system named is MCT1-null KBM7 cells. Description: Cell survival assay, MCT1-null KBM7 clones. The assay is classed as cell-based, human. As to the method:
as §1, §2

For another assay, the system named is parental KBM7 cells. Description: Extracellular flux analysis (ECAR), parental KBM7 cells. The assay is classed as cell-based, human. To be noted: 50 μM 3-BrPA. As to the method:
The bioenergetic profiles of KBM7 and MDA-MB-231 cells in response to 3-BrPA were determined using a Seahorse Bioscience XF24 Extracellular Flux Analyzer (Seahorse Bioscience). For the indicated experiments, 250,000 KBM7 or 40,000 MDA-MB-231 cells seeded in Seahorse tissue culture plates using unbuffered RPMI (10 mM Glucose). KBM7 cells were attached to the plates using CellTak (Clontech) one hour prior to the start of the experiment. For AUC (area under the curve) OCR and ECAR measurements, three consecutive readings were performed for each cell line. For experiments where 3-BrPA is used, after 3 consecutive readings, 50 μM 3-BrPA was injected through port A and ECAR and OCAR levels were measured. Lactate production was measured as described previously^50. For ATP assays, 20,000 cells were seeded and treated for 30 min with indicated amounts of 3-BrPA and ATP levels were determined using a luciferase-based assay (Promega). For metabolite measurements, 10 million wild type and MCT1 null KBM7 cells were cultured for 1 hour in presence of 50 μM 3-BrPA before metabolite extraction. Then, cells were rapidly washed three times with cold PBS, and then metabolites were extracted by addition of 80% ice-cold methanol followed after incubation on dry ice for 15 min. Endogenous metabolite profiles were obtained using LC-MS as described^51. Metabolite levels (n=3) were normalized to cell number.

In a further assay the test system is breast cancer lines. Nature of the assay: 3-BrPA sensitivity versus MCT1 protein level in breast cancer lines. The assay is classed as cell-based, human. On the procedure: Cell lines (5,000-20,000) were seeded in 96-well plates and treated with indicated amounts of 3-BrPA. After 3 days of treatment, CellTiter-Glo (Promega) and/or CyQuant (Invitrogen) were used to measure survival percentage for each concentration compared to untreated cells. FACS analysis with Annexin V and 7AAD staining was performed according to manufacturer's manual (BD Pharmingen).
Briefly, cells were rinsed twice in ice-cold PBS and harvested in a standard lysis buffer containing 50 mM Hepes, pH 7.4, 40 mM NaCl, 2 mM EDTA, 1.5 mM orthovanadate, 50 mM NaF, 10 mM pyrophosphate, 10 mM glycerophosphate, protease inhibitors (Roche) and 1% Triton-X-100. Proteins from total lysates were resolved by 8-12% SDS-PAGE, and analyzed by immunoblotting as described using anti-MCT1 (Millipore; Ab3540), anti-RPS6 and anti-raptor antibodies (1:1000)^50. For quantitation, ImageJ software was used and the signals were normalized using an equal loading control (RPS6/Raptor). Immunohistochemistry was performed on formalin-fixed paraffin embedded sections using a boiling Dako antigen retrieval method (Dako). A 1:500 dilution of the anti-MCT1 antibody was used for staining.

Entries after “also recorded” stand apart in the source; their conditions may differ.

On to `O=C(O)C(=O)CBr` [3-BrPA, 3-bromopyruvic acid], for which the “sensitivity to 3-BrPA (cell death)” value in the assay with KBM7 cells is recorded as “induce cell death accompanied by caspase-3 activation; also recorded: sensitive”. The “3-BrPA uptake on reduction in extracellular pH” value on MCT1 (wild type KBM7, radiolabeled 3-BrPA, 20 minutes) is “enhanced”. Also, the “competition with the uptake of radiolabeled 3-BrPA” value at MCT1 (wild type KBM7 in HBSS, up to 20 minutes, unlabeled competitor) is given as “effectively competed”. Also, the “sensitivity to 3-BrPA after re-expression of MCT1” value in the assay with MCT1-null KBM7 cells (MCT1-null KBM7 cells with exogenous MCT1) is listed as “nearly completely restored their sensitivity”. Moreover, the “resistance to 3-BrPA” value with MCT1-null KBM7 cells (MCT1-null KBM7 clones (Clone A and B), 50 μM, 3 days) is on record as “completely resistant”. The “extracellular acidification rate (ECAR), a proxy for lactate production” value with parental KBM7 cells was “substantial decrease”. Besides, the “sensitivity to 3-BrPA” value in the assay with breast cancer lines (breast cancer lines with high MCT1 protein levels) is listed as “sensitive”; in the assay with breast cancer lines (breast cancer lines with low to no MCT1) it was “resistant to even high concentrations”.

For the origin of these results see patent US20140142180A1, “METHODS OF TREATING TUMORS HAVING ELEVATED MCT1 EXPRESSION” (Whitehead Institute for Biomedical Research, priority 2012, published 2014).
